One assay addresses T1, Progesterone receptor (Homo sapiens, UniProt P06401).
T1 sequence (P06401 whole entry): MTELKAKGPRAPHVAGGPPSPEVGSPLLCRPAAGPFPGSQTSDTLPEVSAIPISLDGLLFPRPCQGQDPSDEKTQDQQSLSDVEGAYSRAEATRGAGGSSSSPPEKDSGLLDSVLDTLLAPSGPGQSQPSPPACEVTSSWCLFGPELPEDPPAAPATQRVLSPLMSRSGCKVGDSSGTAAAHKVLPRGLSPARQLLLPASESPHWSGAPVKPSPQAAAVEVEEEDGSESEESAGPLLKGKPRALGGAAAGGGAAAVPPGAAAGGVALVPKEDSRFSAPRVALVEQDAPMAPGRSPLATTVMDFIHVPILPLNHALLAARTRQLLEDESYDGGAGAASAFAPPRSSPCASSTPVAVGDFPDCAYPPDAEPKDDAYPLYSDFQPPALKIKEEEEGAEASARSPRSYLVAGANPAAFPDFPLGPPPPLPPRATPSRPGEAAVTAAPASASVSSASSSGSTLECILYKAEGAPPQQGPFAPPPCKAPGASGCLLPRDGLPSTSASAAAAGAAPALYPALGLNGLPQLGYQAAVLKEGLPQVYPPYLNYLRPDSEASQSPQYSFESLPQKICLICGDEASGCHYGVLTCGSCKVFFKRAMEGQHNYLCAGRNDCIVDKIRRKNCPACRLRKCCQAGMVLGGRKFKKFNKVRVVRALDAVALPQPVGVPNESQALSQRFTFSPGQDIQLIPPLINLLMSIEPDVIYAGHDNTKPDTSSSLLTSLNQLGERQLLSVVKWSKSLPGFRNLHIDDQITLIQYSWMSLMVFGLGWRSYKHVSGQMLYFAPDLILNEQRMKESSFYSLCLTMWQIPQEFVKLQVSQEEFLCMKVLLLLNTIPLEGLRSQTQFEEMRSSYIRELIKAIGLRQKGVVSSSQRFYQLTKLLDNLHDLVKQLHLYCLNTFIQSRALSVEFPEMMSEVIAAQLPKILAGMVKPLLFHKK
The assay is described as follows: Binding affinity towards progesterone receptor using fluorescence polarization competitive binding assay.

For assay [1], the target named is T2, Glucocorticoid receptor (Homo sapiens, UniProt P04150).
T2 sequence (P04150 whole entry): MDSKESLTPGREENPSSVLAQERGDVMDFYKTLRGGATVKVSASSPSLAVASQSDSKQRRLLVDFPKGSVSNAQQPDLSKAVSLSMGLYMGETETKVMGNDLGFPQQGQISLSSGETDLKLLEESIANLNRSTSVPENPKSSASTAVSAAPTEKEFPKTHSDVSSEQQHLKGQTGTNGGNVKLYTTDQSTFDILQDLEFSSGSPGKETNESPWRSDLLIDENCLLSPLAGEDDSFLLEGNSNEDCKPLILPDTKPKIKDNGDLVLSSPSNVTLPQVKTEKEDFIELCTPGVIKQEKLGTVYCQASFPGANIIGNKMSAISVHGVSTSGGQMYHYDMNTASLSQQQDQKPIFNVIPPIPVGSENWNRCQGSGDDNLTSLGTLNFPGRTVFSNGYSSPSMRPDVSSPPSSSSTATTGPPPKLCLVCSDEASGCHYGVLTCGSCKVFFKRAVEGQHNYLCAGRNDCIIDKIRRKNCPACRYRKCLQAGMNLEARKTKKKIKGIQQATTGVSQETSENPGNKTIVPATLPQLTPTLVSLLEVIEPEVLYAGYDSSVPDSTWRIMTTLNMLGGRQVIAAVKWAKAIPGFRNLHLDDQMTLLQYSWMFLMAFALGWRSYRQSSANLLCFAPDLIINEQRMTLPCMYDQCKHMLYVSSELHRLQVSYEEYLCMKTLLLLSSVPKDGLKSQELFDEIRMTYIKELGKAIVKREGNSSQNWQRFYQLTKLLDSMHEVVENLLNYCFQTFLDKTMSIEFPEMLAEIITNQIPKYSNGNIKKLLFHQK
As to the kind of experiment: Binding affinity towards glucocorticoid receptor using fluorescence polarization competitive binding assay. In general terms: Polarisation of emitted light reports the rotation of a fluorescent probe.

Assay [2] concerns the target T3, Mineralocorticoid receptor (Homo sapiens, UniProt P08235).
T3 sequence (P08235 whole entry): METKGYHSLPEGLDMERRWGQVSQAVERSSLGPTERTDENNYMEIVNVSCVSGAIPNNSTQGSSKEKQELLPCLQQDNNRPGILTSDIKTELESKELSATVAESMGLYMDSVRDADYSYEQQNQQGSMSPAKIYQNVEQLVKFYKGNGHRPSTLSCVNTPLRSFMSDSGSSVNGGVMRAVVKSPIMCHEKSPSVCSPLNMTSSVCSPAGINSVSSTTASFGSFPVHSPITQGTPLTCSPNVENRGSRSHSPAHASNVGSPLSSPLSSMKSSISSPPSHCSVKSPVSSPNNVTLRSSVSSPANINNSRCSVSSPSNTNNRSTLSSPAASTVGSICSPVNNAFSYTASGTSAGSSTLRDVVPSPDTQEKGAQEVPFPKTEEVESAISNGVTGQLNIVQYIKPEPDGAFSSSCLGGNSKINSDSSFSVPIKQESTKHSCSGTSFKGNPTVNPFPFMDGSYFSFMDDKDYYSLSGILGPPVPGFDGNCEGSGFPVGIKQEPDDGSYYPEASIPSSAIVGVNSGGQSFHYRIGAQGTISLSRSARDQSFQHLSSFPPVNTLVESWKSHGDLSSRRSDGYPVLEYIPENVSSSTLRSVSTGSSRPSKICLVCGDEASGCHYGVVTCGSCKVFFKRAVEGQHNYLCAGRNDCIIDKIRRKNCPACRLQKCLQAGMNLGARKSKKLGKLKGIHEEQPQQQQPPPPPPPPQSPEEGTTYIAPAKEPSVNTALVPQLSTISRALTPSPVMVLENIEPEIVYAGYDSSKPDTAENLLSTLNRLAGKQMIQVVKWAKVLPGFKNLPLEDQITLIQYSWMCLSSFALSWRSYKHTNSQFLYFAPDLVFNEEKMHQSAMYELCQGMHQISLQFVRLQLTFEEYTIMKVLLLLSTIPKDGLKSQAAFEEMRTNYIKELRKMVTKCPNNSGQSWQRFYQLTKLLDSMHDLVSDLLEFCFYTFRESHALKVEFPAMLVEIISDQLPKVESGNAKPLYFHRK
The assay is described as follows: Binding affinity towards mineralocorticoid receptor using fluorescence polarization competitive binding assay.

Assay [3] deals with T2, Glucocorticoid receptor. As to the kind of experiment: Effective concentration against inhibition of Dexamethasone induced glucocorticoid receptor transactivation of mouse mammary tumor virus luciferase gene in HeLa cells. Type of assay: cell-based.

Consider 30 compounds from ChEMBL document CHEMBL1143464, “Trifluoromethyl group as a pharmacophore: effect of replacing a CF3 group on binding and agonist activity of a glucocorticoid receptor ligand” (Bioorg Med Chem Lett, 2005).

Usually IC50 stands for the concentration that gives 50% inhibition. Higher therefore signals lower potency. The EC50 is the concentration giving half of the maximal effect.

For the compound `Cc1cccc(CC(O)(CC(C)(C)c2cc(F)ccc2O)C(=O)Nc2ccc3c(c2)COC3=O)c1` (configuration not stated), the figures for the IC50 on Progesterone receptor and at Glucocorticoid receptor [1] were 34 nM and 52 nM, respectively.

Take `Cc1cc(C)cc(CC(O)(CC(C)(C)c2cc(F)ccc2O)C(=O)Nc2ccc3c(c2)COC3=O)c1` (configuration not stated): the IC50 at Progesterone receptor turned out to be 51 nM; at Glucocorticoid receptor [1], 470 nM.

Consider `CC(C)(CC(O)(CC1CCCCC1)C(=O)Nc1ccc2c(c1)COC2=O)c1cc(F)ccc1O` (configuration not stated), for which the IC50 on Progesterone receptor was 42 nM; on Glucocorticoid receptor [1], 20 nM; in assay [2], 140 nM. The compound also had an EC50 on Glucocorticoid receptor [3] of 130 nM.

As for `Cc1noc(=O)c2ccc(NC(=O)C(O)(CC3CCCCC3)CC(C)(C)c3ccccc3)cc12` (configuration not stated), the IC50 on Progesterone receptor was 40 nM; on Glucocorticoid receptor [1], 9 nM.

For `COc1ccc(F)cc1C(C)(C)CC(O)(C(=O)Nc1ccc2c(c1)COC2=O)C(F)(F)F` (configuration not stated), the IC50 on Progesterone receptor is 85 nM; at Glucocorticoid receptor [1], 230 nM.

As to `CC(O)(CC(C)(C)c1ccccc1)C(=O)Nc1ccc2c(c1)COC2=O` (configuration not stated), the IC50 on Progesterone receptor worked out at 85 nM; on Glucocorticoid receptor [1] it was 370 nM; in assay [2], 60 nM. At Glucocorticoid receptor [3], the response was half-maximal at 2370 nM (EC50).

As for `Cc1noc(=O)c2ccc(NC(=O)C(O)(CC3CCCCC3)CC(C)(C)c3cc(F)ccc3O)cc12` (configuration not stated), the IC50 was determined as 35 nM on Progesterone receptor, 7 nM on Glucocorticoid receptor [1] and 104 nM in assay [2]. The EC50 on Glucocorticoid receptor [3] was 120 nM.

Regarding `CC(C)(CC(O)(Cc1ccccc1)C(=O)Nc1ccc2c(c1)COC2=O)c1cc(F)ccc1O` (configuration not stated), the values for the IC50 (at Progesterone receptor; at Glucocorticoid receptor [1]; in assay [2]) were 35 nM, 60 nM and 190 nM, respectively. The midpoint of the response on Glucocorticoid receptor [3], the EC50, lay at 420 nM.

In the case of `CC(C)(CC(O)(C(=O)Nc1ccc2c(c1)COC2=O)C(F)(F)F)c1ccccc1` (configuration not stated), the IC50 at Progesterone receptor was found to be 36 nM; on Glucocorticoid receptor [1], 79 nM; in assay [2], 215 nM. At Glucocorticoid receptor [3], this compound registered an EC50 of 150 nM.

As to `CC(C)(C)c1ccc(CC(O)(CC(C)(C)c2ccccc2)C(=O)Nc2ccc3c(c2)COC3=O)cc1` (configuration not stated), the IC50 stood at 330 nM on Progesterone receptor, 72 nM on Glucocorticoid receptor [1] and 175 nM in assay [2]. The same compound returned an EC50 on Glucocorticoid receptor [3] of 760 nM.

For `CC(C)C(O)(CC(C)(C)c1ccccc1)C(=O)Nc1ccc2c(c1)COC2=O` (configuration not stated), the figures for the IC50 (at Progesterone receptor; on Glucocorticoid receptor [1]; in assay [2]) were 210 nM, 200 nM and 315 nM, respectively. This compound displayed an EC50 on Glucocorticoid receptor [3] of 620 nM.

As for `CC(C)(CC(O)(Cc1ccc(-c2ccccc2)cc1)C(=O)Nc1ccc2c(c1)COC2=O)c1ccccc1` (configuration not stated), the IC50 was found to be 180 nM on Progesterone receptor and 740 nM on Glucocorticoid receptor [1].

As for `COc1ccc(F)cc1C(C)(C)CC(O)(CNc1ccc2c(c1)COC2=O)Cc1ccccc1` (configuration not stated), the figures for the IC50 (on Progesterone receptor; on Glucocorticoid receptor [1]; in assay [2]) were 80 nM, 81 nM and 195 nM, respectively. This compound came in with an EC50 on Glucocorticoid receptor [3] of 610 nM.

With `COc1ccc(F)cc1C(C)(C)CC(O)(Cc1ccccc1)C(=O)Nc1ccc2c(c1)COC2=O` (configuration not stated), the IC50 came out at 35 nM at Progesterone receptor and 52 nM on Glucocorticoid receptor [1].

With `CC(C)(CC(O)(Cc1ccccc1)C(=O)Nc1ccc2c(c1)COC2=O)c1ccccc1` (configuration not stated), the IC50 was found to be 30 nM at Progesterone receptor, 13 nM on Glucocorticoid receptor [1] and 160 nM in assay [2]. In addition, it took 205 nM to reach a half-maximal effect at Glucocorticoid receptor [3] (EC50).

For the compound `CC(C)(CC(O)(Cc1ccc2ccccc2c1)C(=O)Nc1ccc2c(c1)COC2=O)c1ccccc1` (configuration not stated), the IC50 at Progesterone receptor stood at 48 nM; at Glucocorticoid receptor [1], 110 nM.

Consider `Cc1noc(=O)c2ccc(NC(=O)C(O)(Cc3ccccc3)CC(C)(C)c3ccccc3)cc12` (configuration not stated), for which the IC50 was 30 nM at Progesterone receptor and 7 nM at Glucocorticoid receptor [1].

`CC(C)(CC(O)(Cc1ccccn1)C(=O)Nc1ccc2c(c1)COC2=O)c1ccccc1` (configuration not stated): the IC50 on Progesterone receptor came out at 400 nM; at Glucocorticoid receptor [1] it was 760 nM.

Take `CC(C)(CC(O)(Cc1cccc(O)c1)C(=O)Nc1ccc2c(c1)COC2=O)c1ccccc1` (configuration not stated): the IC50 is 44 nM at Progesterone receptor and 120 nM at Glucocorticoid receptor [1].

In the case of `CC(C)(CC(O)(Cc1ccccc1O)C(=O)Nc1ccc2c(c1)COC2=O)c1ccccc1` (configuration not stated), the IC50 at Progesterone receptor is 47 nM; on Glucocorticoid receptor [1], 61 nM.

For the compound `Cc1noc(=O)c2ccc(NC(=O)C(O)(Cc3ccccc3)CC(C)(C)c3cc(F)ccc3O)cc12` (configuration not stated), the IC50 on Progesterone receptor was 32 nM; at Glucocorticoid receptor [1], 8 nM; in assay [2] it was 104 nM. Also, a half-maximal response on Glucocorticoid receptor [3] (EC50) required 130 nM.

Consider `CC(C)(CC(O)(C(=O)Nc1ccc2c(c1)COC2=O)c1ccccc1)c1ccccc1` (configuration not stated), for which the values for the IC50 at Progesterone receptor and on Glucocorticoid receptor [1] were 240 nM and 460 nM, respectively.

As for `CC(C)(CC(O)C(=O)Nc1ccc2c(c1)COC2=O)c1ccccc1` (configuration not stated), the IC50 on Progesterone receptor and on Glucocorticoid receptor [1] was greater than 2000 nM in each case.

In the case of `Cc1ccccc1CC(O)(CC(C)(C)c1cc(F)ccc1O)C(=O)Nc1ccc2c(c1)COC2=O` (configuration not stated), the results for the IC50 at Progesterone receptor and at Glucocorticoid receptor [1] were 36 nM and 48 nM, respectively.

As for `CC(C)(CC(Cc1ccccc1)C(=O)Nc1ccc2c(c1)COC2=O)c1ccccc1` (configuration not stated), the half-maximal inhibitory concentration (IC50) on Progesterone receptor is 2000 nM; at Glucocorticoid receptor [1] it was greater than 2000 nM.

Regarding `CC(C)(CC(O)(CCc1ccccc1)C(=O)Nc1ccc2c(c1)COC2=O)c1ccccc1` (configuration not stated), the IC50 came to 59 nM on Progesterone receptor and 57 nM at Glucocorticoid receptor [1].

Consider `CC(C)(CC(O)(Cc1cc(O)cc(O)c1)C(=O)Nc1ccc2c(c1)COC2=O)c1ccccc1` (configuration not stated), for which the IC50 on Progesterone receptor is 160 nM; on Glucocorticoid receptor [1], greater than 2000 nM.

With `CC(C)(CC(O)(CC1CCCCC1)C(=O)Nc1ccc2c(c1)COC2=O)c1ccccc1` (single isomer, unassigned), the values for the IC50 on Progesterone receptor and on Glucocorticoid receptor [1] were 35 nM and 9 nM, respectively.

In the case of `CC(C)(CC(O)(CC1CCCCC1)C(=O)Nc1ccc2c(c1)COC2=O)c1ccccc1` (stereo in doubt), the IC50 on Progesterone receptor was 210 nM; on Glucocorticoid receptor [1], 320 nM.

With `CC(C)(CC(O)(CC1CCCCC1)C(=O)Nc1ccc2c(c1)COC2=O)c1ccccc1` (stereo in doubt; 6), the IC50 on Progesterone receptor turned out to be 19 nM; on Glucocorticoid receptor [1], 9 nM; in assay [2], 170 nM. The midpoint of the response on Glucocorticoid receptor [3], the EC50, lay at 140 nM.
